What was measured:
[1] = tested on: BSC-1 cells; assay: Time of contact with cells required to commit them to accelerated growth (washout, count at four days); format: cell-based, African green monkey
Procedure: Confluent monolayers of BSC-1 cells are prepared as herein and exposed to the 14-Ser peptide (0.5 μg/ml) for different amounts of time (0 to 30 minutes). At the end of the defined exposure period, culture medium containing the mitogen was aspirated, the monolayer was rinsed to remove non-adherent peptide, and fresh medium was added. Four days later the number of cells in the culture was counted.
In these experiments a solution containing the peptide of interest was added to the cell monolayer; culture medium was then aspirated at a specified time thereafter. Then fresh medium without the peptide was added and the number of cells was counted four days later.

[2] = tested on: BSC-1 cells; assay: Inhibition of WGF and WGF-derived peptide mitogenesis in BSC-1 cells; format: cell-based, African green monkey; settings: TGF-β2 6 ng/ml; exogenous 14-Ser up to 5 μg/ml
Text: In these studies the pentamers, PQGNH (SEQ ID NO: 36) or YPQGN (SEQ ID NO: 3) were synthesized, purified by HPLC and then assayed for growth-promoting activity. […] Because the pentamers are not mitogenic, when they bind to the site, growth is not observed. After pentamers are bound to the site, the pentamers appear to prevent the hexapeptide from gaining access to the membrane.
Transforming growth factor (TGF)-β2 is an autocrine growth inhibitor secreted by BSC-1 cells that limits proliferation in culture. Exogenous TGF-β2 was added to the culture medium to determine its capacity to inhibit the growth-promoting effect of 14-Ser. TGF-β2 at a concentration of 1 ng/ml was sufficient to abolish the 25% stimulation of growth induced by 14-Ser. At a TGF-β2 concentration of 2 ng/ml, growth was inhibited by 30% in the presence or absence of 14-Ser; at 10 ng/ml, inhibition was 60%.
Because TGF-β2 inhibits proliferation induced by diverse mitogens, a more specific inhibitor was sought. […] Cells were preincubated for 30 minutes with the pentapeptide YPQGN (SEQ ID NO: 3). The culture medium was then aspirated, the monolayer was rinsed, fresh medium was added, and the number of cells counted 4 days later. Preincubation of cells with YPQGN (SEQ ID NO: 3) inhibited the mitogenic effect of the 6-amino acid peptide.

[3] = tested on: rats with mercuric chloride-induced acute renal failure; assay: Mercuric chloride-induced acute renal failure in rats: survival and renal function; format: in vivo, rat; settings: for survival 7 days later: single dose s.c. 1 hour after mercuric chloride
Text: Nephrotoxic and ischemic acute renal failure (ARF) induced experimentally in rats have long been used to model this syndrome in humans. […] Male rats weighed 200-225 gm at the start of the experiment. This dose was used because preliminary experiments indicated it results in survival of 25-50% of the animals 7 days later. […] An increase in serum creatinine concentration signals a decline in renal function because the injured kidney is unable to excrete endogenous creatinine in the urine so it accumulates in the blood.
The synthetic peptide […] (14-Ser) (SEQ ID NO: 15) (dissolved in sterile 0.01% bovine serum albumin in phosphate-buffered saline) was injected subcutaneously into rats to determine its effect on survival, recovery of renal fucntion, and stimulation of DNA synthesis. Multiple different peptides were studied including 14-Ser, […] (14-mer) (SEQ ID NO: 39), […] (16-mer) (SEQ ID NO: 4) […] (11-mer) (SEQ ID NO: 6), and […] (11-mer) (SEQ ID NO: 41). Different concentrations and times of administration were tested and compared.
Acute tubular necrosis was induced in 44 rats by the subcutaneous (s.c.) injection of mercuric chloride, and a single dose of 14-ser was administered s.c. 1 hour afterwards. Different amounts of the peptide were given to assesses its capacity to affect the outcome. Survival 7 days later was about twice as high in animals given 100-150 μg of peptide (63%) than in rats given 0-75 μg peptide (29%).
To determine the effect of the peptide on survival and recovery of renal function, acute tubular necrosis was induced in 59 rats; 29 received 14-Ser (100 μg/rat) and 30 received an equal volume of the vehicle s.c. 1 hour after administration of mercuric chloride. Enhanced survival (top panel) and renal functional recovery (bottom panel) of rats give a WGF-derived peptide after mercuric chloride-induced acute tubular necrosis are shown in FIG. 2A and FIG. 2B. Mercuric chloride was injected subcutaneously into each of the 59 rats, and 1 hour later 100 μg of WGF peptide (14-Ser) (n=29 rats) or the vehicle […] was given. Survival was greater in rats given the peptide than in animals receiving the vehicle as early as day 3 after administration of mercuric chloride. Blood was obtained from the tail vein on the days indicated, and serum creatinine concentration was measured. […] On days 2, 3 and 4, the lower creatinine concentration in peptide-treated rats indicates accelerated recovery of kidney function.
Experimental ARF was induced in rats by subcutaneous injection of mercuric chloride. The synthetic peptide […] […] In one experiment a total of 17 rats were injected with a dose of mercuric chloride shown to induce ARF. The different amounts of the peptide (known to stimulate growth of kidney cells in culture) were injected into the animals to assess capacity to improve the outcome. […] In contrast, two of three rats given 100 micrograms of peptide were alive, as were five of six given 200 micrograms. In summary, none of eight rats (0%) given up to 50 micrograms of peptide survived, whereas seven of nine (78%) given 100-200 micrograms did. Thus, the 11-mer WGF peptide improves survival in nephrotoxic ARF.
[…] Four days later, 63% of rats given the 14-Ser peptide were alive compared to 25% of animals receiving the vehicle (chi squared, P-0.0499); 50% of rats receiving EGF were alive (chi squared, P=N.S.). On day 5, 50% of rats given EGF were alive, compared to 12.5% of animals given the vehicle (chi squared, P=0.0436). […] These observations indicate that the 14-Ser peptide and EGF given after renal injury are similar in their ability to improve survival from the ARF syndrome.

[4] = tested on: rats with mercuric chloride-induced acute renal failure; assay: as above; format: in vivo, rat; settings: given 24 hours before mercuric chloride (EGF 20 μg, s.c.)

AQPYPQGNHEASYG was tested, and the “exposure time for half-maximal stimulation” value ([1]; 14-Ser 0.5 μg/ml) was 1 min, the “maximal growth stimulation after 2 minutes exposure” value ([1]; 14-Ser 0.5 μg/ml, count at four days) was 29% and the “exposure time sufficient for maximal growth stimulation (commitment time)” value ([1]; peptide then washed off, cells counted four days later) was 2 min. The “reversal of TGF-β2 growth inhibition” value [2] was “did not reverse growth inhibition”, the “survival 7 days later” value ([3]; 0-75 μg peptide) was 29% and the “recovery of renal function on days 3 and 4” value ([3]; 100 μg/rat s.c. 1 hour after mercuric chloride) was “significantly more rapid recovery”. The “serum creatinine concentration on day 2 compared to vehicle” value ([3]; 100 μg/rat s.c. 1 hour after mercuric chloride, P=0.034) was “significantly lower”, the “serum creatinine concentration on day 1” value ([3]; 100 μg/rat s.c. 1 hour after mercuric chloride, basal 0.5, similar with vehicle) was 2.3 mg/dL and the “survival compared to vehicle 3 days after onset of ARF” value ([3]; 100 μg/rat s.c. 1 hour after mercuric chloride, chi squared P=0.035) was “significantly greater”. For the same sequence, the “survival by day 7” value ([3]; 100 μg/rat s.c. 1 hour after mercuric chloride, vehicle 20%) was 48%, the “survival on day 6” value ([3]; 14-Ser 100 μg 1 hour after, EGF 20 μg 2 hours after mercuric chloride, vehicle 12%) was 37.5% and the “survival four days later” value ([3]; 14-Ser 100 μg s.c. 1 hour after, EGF 20 μg s.c. 2 hours after mercuric chloride 2.25 mg/kg, vehicle 25%) was 63%. For the same sequence, the “survival 7 days later” value ([3]; 100-150 μg of peptide) was 63%, the “renal function (serum creatinine) on day 3 compared to vehicle” value ([3]; given 24 hours before mercuric chloride, P=0.039) was “significantly better” and the “survival on day 4” value ([4]; listed as 14-Ser) was 71%. The “survival on day 4” value ([4]; listed as 14-Ser WGF-derived peptide) was 73%.
